Broadly, the IC50 is the midpoint of a concentration-inhibition curve.

Holding throughout (format): biochemical
One assay has as its target T1, JAK1 kinase (Homo sapiens, UniProt P23458).
T1 construct: purchased Carna 08-144
In words: IC50 evaluation assay on JAK1 kinase inhibition (Caliper). The following applies: adenosine triphosphate at Km; 1 hour at 28° C.; average of two tests; read-out: IC50 (nM) inhibiting JAK 1 kinase. How it is done:
(§1) 1. The compound was dissolved in 100% DMSO, diluted into solutions with appropriate concentration gradients with water according to experimental requirement, and added to a 384-well plate.
(§2) 2. JAK2 kinase (Carna, Cat. No. 08-045, Lot. No. 07CBS-1927) and JAK3 kinase (Carna, Cat. No. 08-046, Lot. No. 08CBS-0371) were diluted to the optimum concentration with the following buffer solution: 50 mM HEPES, pH 7.5, 0.0015% Brij-35, 2 mM DTT. JAK1 kinase (Carna, Cat. No. 08-144, Lot. No. 11CBS-0144D) was diluted to the optimum concentration with the following buffer solution: 25 mM HEPES pH 7.5, 0.01% Brij-35, 2 mM DTT, 0.01M Triton. Transfer to the 384-well plate and incubated with the compound for a period of time.
(§3) 3. […] The substrate of JAK1 was diluted to the optimum concentration with the following buffer: 25 mM HEPES, pH 7.5, 0.01% Brij-35, 10 mM MgCl2, 0.01M Triton, adenosine triphosphate at Km. Add to the 384-well plate to initiate there action and react for 1 hour at 28° C.
(§4) 4. 1 Eq. of sulfuric acid solution was added to terminate the reaction, the conversion rate was read with Caliper Reader. The inhibition rate was calculated as the average of two tests.

The next assay has as its target T2, JAK2 kinase (Homo sapiens, UniProt O60674).
T2 construct: purchased Carna 08-045
In words: IC50 evaluation assay on JAK2 kinase inhibition (Caliper). Conditions: adenosine triphosphate at Km; 1 hour at 28° C.; average of two tests; read-out: IC50 (nM) inhibiting JAK 2 kinase. The method, then:
as §1, §2, §3, §4

The target in another assay is T3, JAK3 kinase (Homo sapiens, UniProt P52333).
T3 construct: purchased Carna 08-046
T3 sequence (P52333 1-1124): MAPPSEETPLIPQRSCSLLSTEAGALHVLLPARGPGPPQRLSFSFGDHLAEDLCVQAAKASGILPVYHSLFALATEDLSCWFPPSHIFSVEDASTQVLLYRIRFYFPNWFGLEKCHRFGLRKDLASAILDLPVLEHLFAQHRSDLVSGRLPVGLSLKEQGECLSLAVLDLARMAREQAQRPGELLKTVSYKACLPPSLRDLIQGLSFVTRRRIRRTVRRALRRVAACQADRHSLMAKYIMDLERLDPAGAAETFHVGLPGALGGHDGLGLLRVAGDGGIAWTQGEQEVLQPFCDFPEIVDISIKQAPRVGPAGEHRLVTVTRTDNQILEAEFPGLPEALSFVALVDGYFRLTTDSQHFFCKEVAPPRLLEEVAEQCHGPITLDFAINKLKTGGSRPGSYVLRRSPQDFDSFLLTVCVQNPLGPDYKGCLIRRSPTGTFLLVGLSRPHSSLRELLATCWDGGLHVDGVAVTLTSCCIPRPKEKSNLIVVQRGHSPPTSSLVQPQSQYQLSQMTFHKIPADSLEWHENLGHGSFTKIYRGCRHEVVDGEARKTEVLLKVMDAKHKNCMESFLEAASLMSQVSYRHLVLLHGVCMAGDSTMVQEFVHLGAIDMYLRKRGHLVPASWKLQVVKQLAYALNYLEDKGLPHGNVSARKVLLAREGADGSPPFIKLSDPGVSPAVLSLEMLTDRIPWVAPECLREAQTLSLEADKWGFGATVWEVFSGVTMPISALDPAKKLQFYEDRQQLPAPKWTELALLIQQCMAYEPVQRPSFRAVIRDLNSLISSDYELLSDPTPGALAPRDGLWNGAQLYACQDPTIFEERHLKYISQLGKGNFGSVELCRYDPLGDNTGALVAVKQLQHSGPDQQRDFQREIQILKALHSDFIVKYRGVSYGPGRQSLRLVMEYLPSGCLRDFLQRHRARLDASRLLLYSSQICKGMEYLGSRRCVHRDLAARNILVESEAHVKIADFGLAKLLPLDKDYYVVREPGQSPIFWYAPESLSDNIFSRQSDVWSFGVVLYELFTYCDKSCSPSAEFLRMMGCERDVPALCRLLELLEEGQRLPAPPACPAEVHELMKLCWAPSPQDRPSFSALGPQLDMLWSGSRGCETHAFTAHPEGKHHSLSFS
In words: IC50 evaluation assay on JAK3 kinase inhibition (Caliper). The following applies: adenosine triphosphate at Km; 1 hour at 28° C.; average of two tests; read-out: IC50 (nM) inhibiting JAK 3 kinase. The method, then:
as §1, §2, §3, §4

SMILES strings stand for the structures.

T2 sequence (O60674 whole entry): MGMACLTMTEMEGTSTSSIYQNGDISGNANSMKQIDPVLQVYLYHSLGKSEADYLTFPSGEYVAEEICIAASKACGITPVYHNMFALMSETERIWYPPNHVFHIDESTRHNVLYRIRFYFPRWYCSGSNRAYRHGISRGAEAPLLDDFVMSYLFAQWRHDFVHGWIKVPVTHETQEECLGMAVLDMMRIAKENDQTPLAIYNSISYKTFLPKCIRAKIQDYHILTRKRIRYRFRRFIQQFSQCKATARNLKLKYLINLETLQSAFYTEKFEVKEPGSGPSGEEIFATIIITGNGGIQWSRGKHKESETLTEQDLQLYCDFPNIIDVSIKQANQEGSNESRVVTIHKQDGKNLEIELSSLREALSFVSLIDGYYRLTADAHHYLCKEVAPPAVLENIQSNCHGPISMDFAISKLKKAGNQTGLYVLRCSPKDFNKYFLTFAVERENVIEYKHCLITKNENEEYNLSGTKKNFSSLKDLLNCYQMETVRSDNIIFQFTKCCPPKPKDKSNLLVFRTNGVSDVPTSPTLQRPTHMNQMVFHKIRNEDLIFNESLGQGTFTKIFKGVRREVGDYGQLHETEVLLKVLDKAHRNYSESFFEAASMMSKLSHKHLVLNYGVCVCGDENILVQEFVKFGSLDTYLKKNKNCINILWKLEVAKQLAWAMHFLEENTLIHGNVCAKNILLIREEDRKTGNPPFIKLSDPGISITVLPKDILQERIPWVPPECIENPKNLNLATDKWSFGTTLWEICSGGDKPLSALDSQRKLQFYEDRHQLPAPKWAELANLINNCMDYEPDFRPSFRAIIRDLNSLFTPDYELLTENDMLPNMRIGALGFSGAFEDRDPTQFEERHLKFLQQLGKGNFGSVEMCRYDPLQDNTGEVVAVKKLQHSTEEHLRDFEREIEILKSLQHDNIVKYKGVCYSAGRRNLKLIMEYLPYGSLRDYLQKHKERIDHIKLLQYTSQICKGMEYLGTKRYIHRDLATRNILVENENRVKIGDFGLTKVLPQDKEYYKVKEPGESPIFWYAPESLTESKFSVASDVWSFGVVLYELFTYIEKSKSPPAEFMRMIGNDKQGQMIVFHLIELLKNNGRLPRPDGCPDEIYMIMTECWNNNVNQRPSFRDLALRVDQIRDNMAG
T1 sequence (P23458 whole entry): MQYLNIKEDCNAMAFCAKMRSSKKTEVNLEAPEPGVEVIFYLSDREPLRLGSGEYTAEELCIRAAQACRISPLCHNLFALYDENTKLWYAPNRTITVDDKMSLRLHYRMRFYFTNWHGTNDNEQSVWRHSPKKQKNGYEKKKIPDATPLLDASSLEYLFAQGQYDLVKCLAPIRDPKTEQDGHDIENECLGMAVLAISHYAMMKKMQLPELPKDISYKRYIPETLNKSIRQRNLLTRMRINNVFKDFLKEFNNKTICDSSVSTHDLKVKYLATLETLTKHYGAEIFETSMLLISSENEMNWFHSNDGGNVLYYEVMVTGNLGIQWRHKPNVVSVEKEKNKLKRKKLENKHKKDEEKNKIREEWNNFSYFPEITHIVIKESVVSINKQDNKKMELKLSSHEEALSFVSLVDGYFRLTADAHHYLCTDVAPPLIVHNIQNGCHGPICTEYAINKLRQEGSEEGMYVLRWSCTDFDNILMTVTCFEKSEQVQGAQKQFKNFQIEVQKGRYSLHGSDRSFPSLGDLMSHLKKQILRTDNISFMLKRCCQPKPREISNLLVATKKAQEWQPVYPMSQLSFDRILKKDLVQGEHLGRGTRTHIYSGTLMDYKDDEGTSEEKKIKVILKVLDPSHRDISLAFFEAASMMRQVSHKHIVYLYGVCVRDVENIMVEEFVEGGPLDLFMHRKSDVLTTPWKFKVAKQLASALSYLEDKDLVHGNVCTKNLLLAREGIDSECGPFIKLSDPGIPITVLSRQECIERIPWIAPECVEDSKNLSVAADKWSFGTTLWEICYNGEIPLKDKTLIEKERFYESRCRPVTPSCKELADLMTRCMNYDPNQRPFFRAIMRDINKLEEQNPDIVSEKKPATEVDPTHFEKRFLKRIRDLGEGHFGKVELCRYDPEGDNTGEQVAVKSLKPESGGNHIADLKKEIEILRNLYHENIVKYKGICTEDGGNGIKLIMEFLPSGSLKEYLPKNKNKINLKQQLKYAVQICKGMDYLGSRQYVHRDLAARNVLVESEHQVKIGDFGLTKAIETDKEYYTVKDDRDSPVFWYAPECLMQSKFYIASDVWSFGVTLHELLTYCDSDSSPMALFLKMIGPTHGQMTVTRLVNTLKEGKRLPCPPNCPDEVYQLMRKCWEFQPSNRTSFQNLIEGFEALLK

Take `COc1ccccc1-c1c(C)sc2cnc(Nc3cnn(C)c3)nc12` [Compound 1, N-[7-(2-methoxyphenyl)-6-methylthieno[3,2-d]pyrimidinyl-2-yl]-1-methyl-1H-pyrazol-4-amine]: the IC50 came out at 6.8 nM at JAK1 kinase, 1.7 nM on JAK2 kinase and 1.7 nM on JAK3 kinase.

As for `Cc1sc2cnc(Nc3cnn(C)c3)nc2c1-c1cccc2c1OCC2` [Compound 2, N-[7-(2,3-dihydro-1-benzofuran-7-yl)-6-methylthieno[3,2-d]pyrimidinyl-2-yl]-1-methyl-1H-pyrazol-4-amine], the half-inhibitory concentration (IC50) is 14 nM at JAK1 kinase, 1.8 nM at JAK2 kinase and 0.99 nM at JAK3 kinase.

Turning to `COc1cc(S(C)(=O)=O)ccc1-c1c(C)sc2cnc(Nc3cnn(C)c3)nc12` [Compound 4], the 50% inhibitory concentration (IC50) on JAK1 kinase stood at 16 nM; at JAK2 kinase, 1.3 nM; at JAK3 kinase, 3.1 nM.

As to `COc1cc(Cl)ccc1-c1c(C)sc2cnc(Nc3cnn(C)c3)nc12` [Compound 6, N-[7-(4-chloro-2-dimethoxyphenyl)-6-methylthieno[3,2-d]pyrimidinyl-2-yl]-1-methyl-1H-pyrazol-4-amine], the IC50 turned out to be 12 nM at JAK1 kinase, 1.4 nM on JAK2 kinase and 1.4 nM on JAK3 kinase.

As to `COc1ccc(-c2c(C)sc3cnc(Nc4cnn(C)c4)nc23)c(OC)c1` [Compound 7, N-[7-(2,4-dimethoxyphenyl)-6-methylthieno[3,2-d]pyrimidinyl-2-yl]-1-methyl-1H-pyrazol-4-amine], the IC50 on JAK1 kinase came to 13 nM; on JAK2 kinase, 1.2 nM; on JAK3 kinase, 1.8 nM.

Regarding `Cc1sc2cnc(Nc3cnn(C)c3)nc2c1-c1ccccc1OC(F)F` [Compound 10, N-{7-[2-(difluoromethoxy)phenyl]-6-methylthieno[3,2-d]pyrimidinyl-2-yl]-1-methyl-1H-pyrazol-4-amine], the 50% inhibitory concentration (IC50) on JAK1 kinase amounted to 10.6 nM; at JAK2 kinase, 1.1 nM; at JAK3 kinase, 3.6 nM.

For the molecule `COc1cc(OCCCS(C)(=O)=O)ccc1-c1c(C)sc2cnc(Nc3cnn(C)c3)nc12` [Compound 11, N-{7-[4-(3-methylsulfonylpropoxy)-2-methoxyphenyl]-6-methylthieno[3,2-d]pyrimidinyl-2-yl]-1-methyl-1H-pyrazol-4-amine], the IC50 at JAK1 kinase was 5.1 nM; at JAK2 kinase, 0.94 nM; on JAK3 kinase, 0.73 nM.

On to `COc1cc(O[C@@H]2CCOC2)ccc1-c1c(C)sc2cnc(Nc3cnn(C)c3)nc12` [Compound 12, N-(7-{2-methoxy-4-[(3R)-3-tetrahydrofuranoxyl]phenyl]-6-methylthieno[3,2-d]pyrimidinyl-2-yl]-1-methyl-1H-pyrazol-4-amine], for which the IC50 on JAK1 kinase turned out to be 12 nM; at JAK2 kinase, 1.8 nM; at JAK3 kinase, 1.4 nM.

For `COc1cc(O[C@H]2CCOC2)ccc1-c1c(C)sc2cnc(Nc3cnn(C)c3)nc12` [Compound 15, N-(7-{2-methoxy-4-[(3S)-3-tetrahydrofuranoxy]phenyl}-6-methylthieno[3,2-d]pyrimidinyl-2-yl]-1-methyl-1H-pyrazol-4-amine], the IC50 at JAK1 kinase worked out at 13 nM; at JAK2 kinase, 1.8 nM; on JAK3 kinase, 2.1 nM.

Turning to `COc1cc(OCCCN2CCC2)ccc1-c1c(C)sc2cnc(Nc3cnn(C)c3)nc12` [Compound 16], the IC50 amounted to 34 nM at JAK1 kinase, 6.1 nM on JAK2 kinase and 6.4 nM at JAK3 kinase.

Turning to `COc1cc(OCCCN2CCOCC2)ccc1-c1c(C)sc2cnc(Nc3cnn(C)c3)nc12` [Compound 17, N-(7-{2-methoxy-4-[3-(4-morpholinyl)propoxy]phenyl}-6-methylthieno[3,2-d]pyrimidinyl-2-yl)-1-methyl-1H-pyrazol-4-amine], the values for the IC50 on JAK1 kinase, at JAK2 kinase and on JAK3 kinase were 16 nM, 2.3 nM and 1.3 nM, respectively.

With `COc1cc(OCCCN2CCCC2)ccc1-c1c(C)sc2cnc(Nc3cnn(C)c3)nc12` [Compound 18, N-(7-{2-methoxy-4-[3-(1-pyrrolidinyl)propoxy]phenyl}-6-methylthieno[3,2-d]pyrimidinyl-2-yl)-1-methyl-1H-pyrazol-4-amine], the 50% inhibitory concentration (IC50) on JAK1 kinase amounted to 20 nM; on JAK2 kinase, 4.3 nM; at JAK3 kinase, 4.5 nM.

As for `COc1ccccc1-c1c(C)sc2cnc(Nc3cnn(CCO)c3)nc12` [Compound 21, 2-(4-{[7-(2-methoxyphenyl)-6-methylthieno[3,2-d]pyrimidinyl-2-yl]amino}-1H-pyrazol-1-yl)-1-ethanol], the values for the IC50 at JAK1 kinase, at JAK2 kinase and at JAK3 kinase were 1.3 nM, 0.31 nM and 0.39 nM, respectively.

On to `COc1ccccc1-c1c(C)sc2cnc(Nc3cnn(CCN4CCN(C)CC4)c3)nc12` [Compound 22], for which the IC50 came to 43 nM at JAK1 kinase, 1.7 nM at JAK2 kinase and 1.5 nM on JAK3 kinase.

Take `COc1cc(OCC(=O)N2CCC2)ccc1-c1c(C)sc2cnc(Nc3cnn(C)c3)nc12` [Compound 23]: the results for the IC50 at JAK1 kinase, on JAK2 kinase and at JAK3 kinase were 1.1 nM, 0.37 nM and 0.64 nM, respectively.

Consider `COc1cc(OCCCS(C)(=O)=O)ccc1-c1c(C)sc2cnc(Nc3cnn(CCO)c3)nc12` [Compound 24, 2-(4-{[7-(4-(3-methylsulfonylpropoxy)-2-methoxyphenyl]-6-methylthieno[3,2-d]pyrimidinyl-2-yl}amino)-1H-pyrazol-1-yl]-1-ethanol], for which the IC50 on JAK1 kinase stood at 9 nM; at JAK2 kinase, 0.94 nM; on JAK3 kinase, 1.3 nM.

For the molecule `COc1ccccc1-c1c(C)sc2cnc(Nc3cnn(C4CCN(C)CC4)c3)nc12` [Compound 25, N-[7-(2-methoxyphenyl)-6-methylthieno[3,2-d]pyrimidinyl-2-yl]-1-(1-methylpiperidin-4-yl)-1H-pyrazol-4-amine], the half-inhibitory concentration (IC50) was determined as 3.6 nM at JAK1 kinase, 0.6 nM at JAK2 kinase and 1.3 nM at JAK3 kinase.

As to `COc1ccccc1-c1c(C)sc2cnc(Nc3cnn(CCCN4CCCC4)c3)nc12` [Compound 26, N-[7-(2-methoxyphenyl)-6-methylthieno[3,2-d]pyrimidinyl-2-yl]-1-[3-(1-pyrrolidinyl)propyl]-1H-pyrazol-4-amine], the IC50 on JAK1 kinase was found to be 12 nM; on JAK2 kinase it was 1.6 nM; on JAK3 kinase, 1.6 nM.

As for `COc1cc(F)ccc1-c1c(C)sc2cnc(Nc3cnn(CCCN4CCCC4)c3)nc12` [Compound 27, N-[7-(4-fluoro-2-methoxyphenyl)-6-methylthieno[3,2-d]pyrimidinyl-2-yl]-1-[3-(1-pyrrolidinyl)propyl]-1H-pyrazol-4-amine], the IC50 on JAK1 kinase amounted to 10 nM; on JAK2 kinase, 2.3 nM; on JAK3 kinase it was 1.6 nM.

As to `CN(c1ccccc1-c1csc2cnc(Nc3cnn(C)c3)nc12)S(C)(=O)=O` [Compound 28, N-methyl-N-(2-{2-[(1-methyl-1H-pyrazol-4-yl)amino]thieno[3,2-d]pyrimidinyl-7-yl}phenyl)methanesulfonamide], the results for the IC50 on JAK1 kinase, on JAK2 kinase and on JAK3 kinase were 75.8 nM, 23 nM and 1.3 nM, respectively.

Take `Cc1sc2cnc(Nc3cnn(C)c3)nc2c1-c1ccccc1OC(C)C` [Compound 29, 1-Methyl-N-{6-methyl-7-[2-(isopropoxy)phenyl]thieno[3,2-d]pyrimidinyl-2-yl]-1H-pyrazol-4-amine]: the IC50 on JAK1 kinase was found to be 30.4 nM; on JAK2 kinase, 0.8 nM; on JAK3 kinase it was 15.9 nM.

The record behind these values is patent US10494378B2, “Fused ring pyrimidine compound, intermediate, and preparation method, composition and use thereof” (GUANGZHOU MAXINOVEL PHARMACEUTICALS CO., LTD., priority 2015, dated 2019).
